Measured values published in US20230210825A1, “METHODS AND COMPOSITIONS FOR TREATING SUBJECTS WITH METABOLIC DISORDERS AND CORONAVIRUS INFECTIONS” (CIRIUS THERAPEUTICS, INC., priority 2020, published 2023).

Legend:
[1] = test system: mice on high trans-fat, fructose, cholesterol (HTF-C) diet; assay: Serum miRNA sequencing in HTF-C diet mice; type: in vivo; details: HTF-C diet containing 331 ppm MSDC-0602K after 4 or 16 weeks of plain HTF-C diet
Experimental: To begin evaluating the exosome cargo of MSDC-0602K-treated mice, WT mice were fed with either a low fat (LF) control diet (Research Diets D09100304) or high trans-fat, fructose, cholesterol (HTF-C) diet composed of 40% trans-fat, 20% fructose, 2% cholesterol (Research Diets D09100301). A subset of mice was fed plain HTF-C diet for 4 or 16 weeks, then switched to HTF-C diet that contained 331 ppm MSDC-0602K.
Total RNA was isolated from 400 μL of serum and small RNA sequencing was performed by adapter ligation, cDNA synthesis and size selection of 145-160 base pairs. Sequencing was then performed on an Illumina HiSeq3000.

[2] = test system: diet-induced obese (60% HF diet) WT (fl/fl) and LS-MPC2−/− mice; assay: Single dose in diet-induced obese WT and LS-MPC2−/− mice (GTT, plasma insulin, ALT, liver qPCR); details: for glucose tolerance (GTT): 20 h after a single gavage of 30 mg/kg, vs vehicle
[3] = test system: subjects with biopsy proven non-alcoholic steatohepatitis (NASH) with fibrosis and no cirrhosis; assay: EMMINENCE Phase 2b clinical trial; type: in vivo, human
[4] = test system: mice fed a diet enriched in trans fat, cholesterol and fructose; assay: Trans fat, cholesterol and fructose diet for 19 weeks: hepatic damage and fibrosis; type: in vivo
Experimental: Mice were fed a diet enriched in trans fat, cholesterol and fructose for 19 weeks to induce hepatic damage and metabolic dysfunction, which was assessed by histological changes in the NAS and fibrosis, measured by trichrome staining for collagen. MSDC-0602K (30 mg/kg) was given at either four weeks into the treatment or 16 weeks into the treatment as compared to the vehicle treated mice who were also on the modified diet. The results of mice who were kept on the normal diet are included for comparison. […] The signals for activation of the stellate cells and fibrosis are attenuated by treatment of the mice or isolated hepatocytes with MSDC-0602K.

[5] = test system: subjects with biopsy proven non-alcoholic steatohepatitis (NASH) with fibrosis and no cirrhosis; assay: EMMINENCE Phase 2b clinical trial; type: in vivo, human; details: for Peripheral Edema Present at Baseline / Isoleucine Baseline / Leucine Baseline / TotalBCAA Baseline / Valine Baseline / Mean HbA1c at Baseline: before treatment; for Isoleucine Visit 7 / Leucine Visit 7 / TotalBCAA Visit 7 / Valine Visit 7: 12-month endpoint; for HbA1c Placebo-corrected change from Baseline at 6 months: ▾ (decrease)
Experimental: An interim analysis of the EMMINENCE Phase 2b trial was conducted in the first 328 subjects who reached their six-month follow-up visit. This study is a randomized, double-blinded study of three doses (62.5 mg 125 mg, or 250 mg) of MSDC-0602K or placebo given orally once daily to subjects with biopsy proven non-alcoholic steatohepatitis (NASH; a non-limiting example of a metabolic disorder) with fibrosis and no cirrhosis.
The subjects included in this interim analysis had significant liver disease, as established by liver biopsy, with an average NAS at baseline of 5.3. […] Overall, baseline characteristics were well-balanced across treatment groups.

[6] = test system: cell functions and key regulatory proteins; assay: Impact of MSDC-0602K vs overnutrition on cell functions and key regulatory proteins (Table 1)
[7] = 62.5 mg, N = 99, mean, baseline to 12-month endpoint
[8] = 125 mg, mean, baseline to 12-month endpoint
[9] = 250 mg, N = 101, mean, baseline to 12-month endpoint
[10] = 1-year Phase 2b dose-ranging trial, fatty liver disease with or without type 2 diabetes
[11] = all MSDC-0602K dose cohorts, interim analysis
[12] = all subjects, six months, 125 mg and 250 mg doses

COc1cccc(C(=O)COc2ccc(CC3SC(=O)NC3=O)cc2)c1 (stereo not drawn) [MSDC-0602K]
serum miRNAs altered by HTF-C diet [1]: largely corrected
glucose tolerance (GTT) ([2]; LS-MPC2−/− mice): no improvement in glucose tolerance
plasma ALT and liver injury gene expression in LS-MPC2−/− mice ([2]; LS-MPC2−/− mice, acute treatment): refractory to the beneficial effects
glucose tolerance (GTT) ([2]; WT mice): improved glucose tolerance
plasma ALT concentrations ([2]; WT mice, single dose (FIG. 8A)): decreased plasma ALT concentrations
gene expression for hepatic stellate cell activation and fibrotic scar formation ([2]; WT mice, single dose (FIG. 8B)): decreased gene expression
plasma insulin values ([2]; both WT and LS-MPC2−/− mice, single dose 30 mg/kg): decreased
Leucine Change from Baseline [3, 7]: −6.74
Valine Change from Baseline [3, 8]: −6.08
Isoleucine Visit 7 ([3]; 250 mg, N = 101, mean, 12-month endpoint): 56.15
Leucine Change from Baseline [3, 9]: −10.55
TotalBCAA Change from Baseline [3, 9]: −37.80
Branched Chain Amino Acids (BCAA) ([3]; baseline to 12-month endpoint (Visit 7)): reduced
signals for activation of the stellate cells and fibrosis ([4]; 30 mg/kg from week 4 or week 16 of a 19-week diet, mice or isolated hepatocytes): attenuated
high fat, high cholesterol, high sugar diet-induced metabolic dysfunction ([4]; multiple animal models): protect against
Peripheral Edema Present at 6 months ([5]; 62.5 mg (n = 81)): 7.80%
Peripheral Edema Present at Baseline ([5]; 62.5 mg group (n = 81)): 13.60%
Isoleucine Visit 7 ([5]; 62.5 mg, N = 99, mean): 61.47
Leucine Visit 7 ([5]; 62.5 mg, N = 99, mean): 114.63
TotalBCAA Visit 7 ([5]; 62.5 mg, N = 99, mean): 397.39
Valine Visit 7 ([5]; 62.5 mg, N = 99, mean): 221.29
Isoleucine Change from Baseline [5, 7]: −6.58
TotalBCAA Change from Baseline [5, 7]: −30.07
Valine Change from Baseline [5, 7]: −16.74
Isoleucine Baseline ([5]; 62.5 mg, N = 99, mean): 69.03
Leucine Baseline ([5]; 62.5 mg, N = 99, mean): 121.80
TotalBCAA Baseline ([5]; 62.5 mg, N = 99, mean): 430.03
Valine Baseline ([5]; 62.5 mg, N = 99, mean): 239.20
Peripheral Edema Present at 6 months ([5]; 125 mg (n = 84)): 13.50%
Peripheral Edema Present at Baseline ([5]; 125 mg group (n = 84)): 13.10%
Isoleucine Visit 7 ([5]; 125 mg, mean): 60.06
Leucine Visit 7 ([5]; 125 mg, mean): 115.95
TotalBCAA Visit 7 ([5]; 125 mg, mean): 399.74
Valine Visit 7 ([5]; 125 mg, mean): 223.73
Isoleucine Change from Baseline [5, 8]: −2.92
Leucine Change from Baseline [5, 8]: −0.60
TotalBCAA Change from Baseline [5, 8]: −9.61
Isoleucine Baseline ([5]; 125 mg, mean): 62.55
Leucine Baseline ([5]; 125 mg, mean): 115.62
TotalBCAA Baseline ([5]; 125 mg, mean): 408.60
Valine Baseline ([5]; 125 mg, mean): 230.43
Peripheral Edema Present at 6 months ([5]; 250 mg (n = 85)): 11.10%
Peripheral Edema Present at Baseline ([5]; 250 mg group (n = 85)): 9.40%
Valine Visit 7 ([5]; 250 mg, N = 101, mean): 212.52
Isoleucine Change from Baseline [5, 9]: −10.10
Valine Change from Baseline [5, 9]: −17.15
Isoleucine Baseline ([5]; 250 mg, N = 101, mean): 66.92
Leucine Baseline ([5]; 250 mg, N = 101, mean): 121.54
Valine Baseline ([5]; 250 mg, N = 101, mean): 232.15
edema ([5]; 1-year Phase 2b dose-ranging trial): without precipitation of edema
glycemic control [5, 10]: improved glycemic control
insulin resistance [5, 10]: reduced insulin resistance
Mean HbA1c at Baseline ([5]; Type II diabetes subjects, 62.5 mg group): 7.09%
HbA1c Placebo-corrected change from Baseline at 6 months ([5]; Type II diabetes subjects, 62.5 mg, p 0.022): ▾0.37
Mean HbA1c at Baseline ([5]; Type II diabetes subjects, 125 mg group): 6.90%
HbA1c Placebo-corrected change from Baseline at 6 months ([5]; Type II diabetes subjects, 125 mg, p 0.001): ▾0.55
Mean HbA1c at Baseline ([5]; Type II diabetes subjects, 250 mg group): 6.97%
HbA1c Placebo-corrected change from Baseline at 6 months ([5]; Type II diabetes subjects, 250 mg, p 0.006): ▾0.45
HbA1c ([5]; Type II diabetes subjects, all doses): statistically significant improvement
HOMA-IR [5, 11]: Statistically significant reductions
HbA1c [5, 11]: Statistically significant reductions
HOMA-IR [5, 12]: statistically significant improvements
HbA1c [5, 12]: statistically significant improvements
fasting glucose [5, 12]: statistically significant improvements
insulin levels [5, 12]: statistically significant improvements
Adiponectin ([5]; all treatment cohorts): increased significantly in all treatment cohorts in a dose dependent manner
additional biomarkers of fibrosis such as hematocrit ([5]; interim analysis): trends for improvement
alkaline phosphatase ([5]; interim analysis, six months): Improvements
bilirubin ([5]; interim analysis, six months): Improvements
gamma GT ([5]; interim analysis, six months): Improvements
lipids ([5]; overall, interim analysis): neutral effect
liver enzymes, including ALT and AST ([5]; six months compared to baseline, interim analysis): statistically significant reductions
C-Reactive Protein levels ([5]; two lowest doses): decrease
Fatty acid oxidation (burning fat) [6]: Increased
HIF1α (transcription factor responding to oxygen) [6]: Decreased
Inflammation (ballooning due to injury) [6]: Decreased
Insulin sensitivity (cellular response to insulin) [6]: Increased
PPARγ, PPARα (transcription factors regulating fat metabolism and inflammation) [6]: Increased
SREBP (transcription factor regulating fat synthesis) [6]: Decreased
de novo lipid synthesis (making new fat) [6]: Decreased
mTORC1 (important nutrient sensor) [6]: Decreased
